In general, inhibition refers to the change of the read-out against control, counted positive when it falls.

These results are taken from patent US4172134A, “Benzo [B]thienopyridines, process for their preparation and therapeutic compositions containing same” (Parcor, priority 1977, dated 1979).

Experiment [1] relates to A.D.P. induced blood-platelet aggregation. Briefly: Determination of A.D.P. induced blood-platelet aggregation. In kind it is in vivo. Conditions: Wistar rats, 100 mg/kg orally, 3 hours after treatment, 10 μM A.D.P. solution, vs reference group, groups of 20 rats; for inhibition at 100 mg/kg: Rattus norvegicus, po, read-out: Percent inhibition of blood-platelet aggregation, A.D.P. The procedure: (§1) 1. Blood-platelet aggregation inhibiting activity
(§2) Blood is taken from the jugular vein of Wistar rats. From this citrated blood and after centrifugation, is reconstituted a plasma containing 600,000±20,000 blood-platelets per mm3 which will be used in all aggregation determinations.
(§3) 0.4 ml of plasma is placed in a siliconized tube provided with a magnet bar which is also siliconized. The tube is introduced into an aggregometer connected with an apparatus which records optical density variations. When light transmission has attained a stable value, 0.5 ml of a solution containing 10 μM A.D.P. (Adenosine-Di-Phosphate) are introduced into the tube.
(§4) Blood-platelet aggregation then produces an increase of light transmission followed by a decrease subsequent to the deaggregation phase.
(§5) The maximal optical density variation thus determined characterizes the intensity of the aggregation.
(§6) Different groups of 20 rats each are used, each group being orally administered a test derivative at a dosage of 100 mg/kg.

Experiment [2] relates to collagen-induced blood-platelet aggregation. Briefly: Determination of collagen-induced blood-platelet aggregation. The conditions noted are these: Wistar rats, 100 mg/kg orally, 3 hours after treatment, collagen solution (bovine tendon extract), vs reference group, groups of 20 rats; for inhibition at 100 mg/kg: Rattus norvegicus, po, read-out: Percent inhibition of blood-platelet aggregation, Collagen. In kind it is in vivo. The procedure:
as §1, §2, §3, §4, §5
The A.D.P. solution is substituted with a collagen solution (bovine tendon extract).
as §6

The structures appear in SMILES notation.

Regarding `COc1cccc(CN2Cc3c(sc4ccccc34)C(c3ccccc3)C2C)c1` (centres unmarked) [Example 9, 3-Methyl-P2-m.methoxybenzyl-4-phenyl-1,2,3,4-tetrahydro-benzo(b)thieno[3,2-c]pyridine], the inhibition at 100 mg/kg in experiment [1] came out at 61.8%; in experiment [2], 91.2%.

In the case of `CC1C(c2ccccc2)c2sc3ccc(Cl)cc3c2CN1Cc1ccncc1` (centres unmarked) [Example 19, 8-Chloro-3-methyl-4-phenyl-2-(4-pyridyl)methyl-1,2,3,4,-tetrahydrobenzo(b)thieno[3,2-c]pyridine], the inhibition at 100 mg/kg in experiment [1] came to 62.4%; in experiment [2] it was 91.9%.

As to `COC(=O)c1ccccc1CN1Cc2c(sc3ccc(Cl)cc23)C(c2ccccc2)C1C` (centres unmarked) [Example 13, 8-Chloro-3-methyl-2-o.methoxycarbonylbenzyl-4-phenyl-1,2,3,4-tetrahydro-benzo(b)thieno[3,2-c]pyridine], the inhibition at 100 mg/kg in experiment [1] came out at 62.1%; in experiment [2], 95%.

For `c1ccc(C2CNCc3c2sc2ccccc32)cc1` (centres unmarked) [Example 4, 4-Phenyl-1,2,3,4-tetrahydro-benzo(b)thieno[3,2-c]pyridine], the values for the inhibition at 100 mg/kg in experiment [1] and in experiment [2] were 61.5% and 90.8%, respectively.

Regarding `CC1NCc2c(sc3ccccc23)C1c1ccccc1` (centres unmarked) [Example 2, 3-Methyl-4-phenyl-1,2,3,4-tetrahydro-benzo(b)-thieno[3,2-c]-pyridine], the inhibition at 100 mg/kg in experiment [1] was 61.7%; in experiment [2], 93.8%.

Regarding `CC1C(c2ccccc2)c2sc3ccc(Cl)cc3c2CN1C` (centres unmarked) [Example 5, 8-Chloro-2,3-dimethyl-4-phenyl-1,2,3,4-tetrahydro-benzo(b)-thieno[3,2-c]pyridine], the inhibition at 100 mg/kg in experiment [1] turned out to be 60.8%; in experiment [2] it was 91.2%.

In the case of `CC1C(c2ccccc2)c2sc3ccccc3c2CN1Cc1ccccn1` (centres unmarked) [Example 18, 3-Methyl-4-phenyl-2-(2-pyridyl)methyl-1,2,3,4-tetrahydro-benzo(b)thieno[3,2-c]pyridine], the inhibition at 100 mg/kg in experiment [1] was 61.3%; in experiment [2] it was 91.7%.

For the molecule `CC1C(c2ccccc2)c2sc3ccc(Cl)cc3c2CN1Cc1ccccc1C(=O)O` (centres unmarked) [Example 14, 2-o.Carboxybenzyl-8-chloro-3-methyl-4-phenyl-1,2,3,4-tetrahydro-benzo(b)thieno[3,2-c]pyridine], the inhibition at 100 mg/kg in experiment [1] worked out at 60.6%; in experiment [2] it was 93.8%.

For `CC1C(c2ccccc2)c2sc3ccc(Cl)cc3c2CN1Cc1ccccc1` (centres unmarked) [Example 7, 2-Benzyl-8-chloro-3-methyl-4-phenyl-1,2,3,4-tetrahydro-benzo(b)thieno[3,2-c]pyridine], the inhibition at 100 mg/kg in experiment [1] worked out at 63%; in experiment [2], 95.1%.

Take `Clc1ccc2sc3c(c2c1)CNCC3c1ccccc1` (centres unmarked) [Example 3, 8-Chloro-1-phenyl-1,2,3,4-tetrahydro-benzo(b)thieno[3,2-c]-pyridine]: the figures for the inhibition at 100 mg/kg in experiment [1] and in experiment [2] were 62.9% and 90.5%, respectively.

For the molecule `COc1cc(CN2Cc3c(sc4ccc(Cl)cc34)C(c3ccccc3)C2C)cc(OC)c1OC` (centres unmarked) [Example 10, 8-Chloro-2-(3,4,5-trimethoxy-benzyl)-3-methyl-4-phenyl-1,2,3,4-tetrahydro-benzo(b)thieno[3,2-c]pyridine], the inhibition at 100 mg/kg in experiment [1] amounted to 60.2%; in experiment [2], 94.5%.

As for `O=[N+]([O-])c1ccccc1CN1Cc2c(sc3ccc(Cl)cc23)C(c2ccccc2)C1` (centres unmarked) [Example 11, 8-Chloro-2-o.nitrobenzyl-4-phenyl-1,2,3,4-tetrahydro-benzo(b)thieno[3,2-c]pyridine], the inhibition at 100 mg/kg in experiment [1] turned out to be 62.5%; in experiment [2], 92.7%.

For the molecule `N#Cc1ccccc1CN1Cc2c(sc3ccccc23)C(c2ccccc2)C1` (centres unmarked) [Example 12, 2-o.Cyanobenzyl-4-phenyl-1,2,3,4-tetrahydro-benzo(b)thieno-[3,2-c]pyridine], the inhibition at 100 mg/kg came out at 61.3% in experiment [1] and 92.2% in experiment [2].

Take `CCCCN1Cc2c(sc3ccc(Cl)cc23)C(c2ccccc2)C1C` (centres unmarked) [Example 15, 2-Butyl-8-chloro-3-methyl-4-phenyl-1,2,3,4-tetrahydro-benzo(b)thieno[3,2-c]pyridine]: the inhibition at 100 mg/kg was found to be 60.1% in experiment [1] and 92.6% in experiment [2].

As for `Cc1ccc(N2Cc3c(sc4ccccc34)C(c3ccccc3)C2)cc1` (centres unmarked) [Example 8, 4-Phenyl-2-p.tolyl-1,2,3,4-tetrahydro-benzo(b)-thieno[3,2-c]-pyridine], in experiment [1], the “Percent inhibition of blood-platelet aggregation, A.D.P.” value amounted to 61.4%. Further, the “Percent inhibition of blood-platelet aggregation, Collagen” value in experiment [2] came to 90.6%.

On to `CC1NCc2c(sc3ccc(Cl)cc23)C1c1ccccc1` (centres unmarked) [Example 1, 8-Chloro-3-methyl-4-phenyl-1,2,3,4-tetrahydro-benzo(b)-thieno[3,2-c]pyridine], for which the inhibition at 100 mg/kg in experiment [1] is 62.1%; in experiment [2], 91.4%.

Turning to `CC1C(c2ccccc2)c2sc3ccc(Cl)cc3c2CN1Cc1cccnc1` (centres unmarked) [Example 17, 8-Chloro-3-methyl-4-phenyl-2-(3-pyridyl)methyl-1,2,3,4-tetrahydro-benzo(b)thieno[3,2-c]pyridine], the inhibition at 100 mg/kg in experiment [1] was determined as 63.5%; in experiment [2], 90.4%.

For the molecule `CC1C(c2ccccc2)c2sc3ccccc3c2CN1CCc1ccccc1` (centres unmarked) [Example 16, 3-Methyl-2-phenethyl-4-phenyl-1,2,3,4-tetrahydro-benzo(b)-thieno[3,2-c]pyridine], the inhibition at 100 mg/kg was 62.7% in experiment [1] and 93.2% in experiment [2].

`CC1C(c2ccccc2)c2sc3ccc(Cl)cc3c2CN1Cc1ccccc1Cl` (centres unmarked) [Example 6, 8-Chloro-2-o-chlorobenzyl-3-methyl-4-phenyl-1,2,3,4-tetrahydro-benzo(b)thieno[3,2-c]pyridine]: the results for the inhibition at 100 mg/kg in experiment [1] and in experiment [2] were 61.2% and 94.4%, respectively.
